According to patent publication US20080318892A1, “METHODS AND FORMULATIONS FOR PROTECTING CELLS, AND FOR TREATING DISEASES AND CONDITIONS BY OPTIMIZING THE INTRACELLULAR CONCENTRATION OF NAD” (priority 2007, published 2008):

Key:
[1] = system: HITC6 SMC's; test: Survival, morphology and h-caldesmon expression of PBEF-knockdown SMCs; format: cell-based, human; conditions: for SMC morphology / SMC survival: retroviral hairpin siRNA
Protocol: (§1) Western Blot Analyses were employed to assay marker expression. Expression of PBEF and SMC differentiation markers was assessed by Western blot analysis with chemiluminescence detection, as described (29). Equal amounts of protein were resolved on 12% (for PBEF and α-tubulin), 9% (for smoothelin A and smoothelin B) and 6% (for caldesmon and vinculin-metavinculin) SDS-polyacrylamide gels and transferred PVDF membranes (Immobilon, Millipore). PBEF was detected using a polyclonal rabbit antibody against human PBEF (1857, 1:5000, kindly provided by Amgen). Monoclonal antibodies were used to detect heavy (h)-caldesmon (clone hHCD, 1:1000, Sigma), smoothelin isoforms A and B (clone MAB3242, 1:500, Chemicon), vinculin-metavinculin (clone VIN-11-5, 1:2000, Sigma), and α-tubulin (clone B-5-1-2; 1:16000, Sigma).
(§2) Knockdown of PBEF by RNA Interference was evaluated with a viral vector. PBEF knockdown was accomplished by infecting human SMC's with retrovirus containing sequences encoding hairpin siRNA fragments. Complementary oligodeoxynucleotides were synthesized, annealed, and inserted between the BamH1 and EcoR1 sites of the retroviral expression vector pSIREN-RetroQ. Three different targeting sequences were used, each consisting of 19 nucleotides starting at nucleotides 147, 384, and […] of the PBEF coding sequence (siRNA147 5′-GGAAGGTGAAATATGAGGA-3′; siRNA384 5′-ATGTTCTCTTCACGGTGGA-3′; siRNA1278 5′-AGGGCCGATTATCTTTACA-3′). Each sequence was separated by a 9-nucleotide noncomplementary spacer from the reverse complement of the same 19-nucleotide sequence. Blast search confirmed that only the PBEF gene was targeted. Control inserts contained the gene-specific 19-nucleotide sequence and hairpin loop sequence but not the antisense component. Infection of SMCs was performed as described above and cells were selected using 3 μg/ml puromycin for 48 hours.
Microscopy and Image Analysis were used to measure cell robustness and function. Cell images were collected using a Zeiss Axiovert S100 microscope (Carl Zeiss Microimaging Inc.) equipped with Hoffman Modulation Contrast Plan objectives and TCT condenser (Modulation Optics Inc.), cooled QICAM 12-bit Mono Fast 1394 camera (QImaging Inc.) and Northern Eclipse image analysis software (Empix Imaging Inc.). Histology images were acquired with an Olympus BX50 microscope with a BX-FLA illuminator, UPlanF1 objective lenses (Olympus Optical Co. Ltd.), cooled Retiga EXi Mono Fast 1394 camera (QImaging Inc.) and Northern Eclipse image analysis software. Linear image processing was done using Photoshop CS (Adobe Systems Inc.).

[2] = system: PBEF; test: Knockdown of PBEF by RNA interference: PBEF mRNA (real-time RT-PCR) and protein (Western blot); format: cell-based, human; conditions: HITC6 SMCs, retroviral hairpin siRNA
Protocol: as §1, §2
Real-time RT-PCR was used to analyze nucleic acid evidence. RNA was harvested using RNeasy mini-column and reagents (Qiagen) and subjected to DNaseI treatment. Probe (5′-CAGTTGCTGATCCCA-3′) and flanking primers (5′-primer 5′-[…]-3′; 3′-primer 5′-[…]-3′) for Taqman real-time RT-PCR for PBEF were designed using Primer Express software (Applied Biosystems). Reactions were performed using an ABI-Prism 7900 Sequence Detection System (Applied Biosystems). Optimum signal was obtained with concentrations of 200 nM, 300 nM and 50 nM for the probe, 5′ primer, and 3′ primer, respectively. Standard curves were generated using RNA derived from human aortic SMCs, enabling correlation of the determined threshold cycle to transcript abundance. GAPDH transcript abundance was used as an endogenous RNA control (Assays on Demand Hs9999905, Applied Biosystems) to which PBEF transcript abundance was normalized.

[3] = system: HDAC; test: Histone deacetylase (HDAC) assay in SMC lysates with [3H]-acetylated histone H4 peptide; format: biochemical, human
Protocol: HITC6 SMC's were stably transduced with pQXCIP-PURO or pQXCIP-PBEF-PURO and HDAC activity determined in cell lysates (25 μg of protein), using [^3H]histone H4 peptide as the substrate. The reactions were quenched by acid hydrolysis and catalytically released [^3H]-acetate was extracted in ethyl acetate.
Histone Deacetylase (HDAC) Assays were employed. Histone H4 peptide (Upstate) was labeled with [^3H]-acetyl Coenzyme A (ICN) using PCAF histone acetylase. Cell lysates were harvested using Passive Lysis Buffer (Promega) and 25 μg of protein was incubated at 37° C. for 6 hours with 50,000 cpm of [^3H]-acetyl histone and 1 mM PMSF in HDAC Assay Buffer (Upstate). Released [^3H]-acetate was extracted with ethyl acetate (31) and counted on a Beckman LS3801 scintillation counter.

[4] = system: HITC6 SMCs; test: Replicative lifespan (cumulative population doublings) of HITC6 SMCs; format: cell-based, human
Protocol: To quantify replication, cells were plated at 4500 cells/cm^2 and growth medium with 10% FBS was changed every two days until cells reached 90-95% confluence. Harvested cells were counted from triplicate plates and the number of population doublings was calculated based on: [log10(number of cells harvested)−log10(number of cells seeded)]/[…] (Fukuhara, 2005). Population growth curves were compared using both nonlinear regression and two-way analysis of variance.
Cell Culture. Experiments were performed using primary human SMCs and the HITC6 clonal SMC line, both derived from segments of human internal thoracic artery (Li et al., 1999; Li et al., 2001). SMCs were maintained at 37° C. with 5% CO2 and cultured in Medium 199 (Invitrogen, Carlsbad, Calif., USA) supplemented with 25 mM HEPES, 10% FBS, 1% penicillin/streptomycin, and 1% L-glutamine. Phoenix cells (distributed by ATCC, Manassas, Va., USA) were maintained at 37° C. with 5% CO2 and cultured in Dulbecco's modified Eagle's medium (Invitrogen, Carlsbad, Calif., USA). To quantify replication, cells were seeded at a density of 4500 cells/cm2 and population doublings were calculated using the following formula: […].

[5] = system: HITC6 SMCs; test: Senescence-associated beta-galactosidase activity / senescence-free survival; format: cell-based, human; conditions: 37th subculture
Protocol: Senescence-associated β-Galatosidase Activity Assay. SMCs on glass coverslips at approximately 70% confluence were fixed in 2% formaldehyde/0.2% glutaraldehyde in PBS for 3 minutes and incubated with X-gal-containing reaction mixture, as previously described (Dimri, 1995). Washed cells were stained with Hoechst 33258 (2.5 μg/ml) and the proportion of senescence-associated β-galactosidase (SA β-Gal)-positive cells quantified from 10 microscope fields of view (Olympus BX51, ×20 objective, approximately 1200 cells). Senescence-free survival was determined using Kaplan-Meier analysis of survival vs. replicative age.
Senescence-associated Beta-galactosidase Activity. Senescence-associated beta-galactosidase (SA-β-gal) activity was determined as previously described (Dimri et al, 1995). Briefly, SMCs were fixed in PBS containing 2% formaldehyde/0.2% glutaraldehyde for 3 min at room temperature. Fixed cells were then incubated for 4-6 h at 37° C. with SA-β-gal stain solution containing 150 mM NaCl, 2 mM MgCl, 40 mM citrate, 5 mM potassium ferrocyanide, 5 mM potassium ferricyanide, and 1 mg/ml of 5-bromo-4-chloro-3-indolyl-β-D-galactopyranoside (X-gal) (Invitrogen, Carlsbad, Calif., USA), at pH 6.0. SMCs were counterstained with 2.5 μg/ml Hoechst 33258 to detect cell nuclei. The proportion of SA-β-gal activity positive cells was quantified using light and fluorescence microscopy (Olympus BX51, Center Valley, Pa., USA).

[6] = system: primary human vascular SMCs; test: Replicative lifespan (cumulative population doublings) of primary SMCs; format: cell-based; conditions: SIRT1-overexpressing primary adult SMCs; p<0.01

siRNA384: retrovirally expressed hairpin siRNA to PBEF, 19 nt from nucleotide 384: 5'-ATGTTCTCTTCACGGTGGA-3' (hairpin with spacer and reverse complement)
SMC morphology [1]: maintained an elongated morphology
PBEF mRNA (real-time RT-PCR) vs non-silencing RNA control [2]: did not manifest a reduction
PBEF protein [2]: did not manifest a reduction

siRNA147: retrovirally expressed hairpin siRNA to PBEF, 19 nt from nucleotide 147: 5'-GGAAGGTGAAATATGAGGA-3' (hairpin with spacer and reverse complement)
SMC morphology [1]: short, truncated morphology
SMC survival [1]: survived poorly
PBEF mRNA (real-time RT-PCR) vs non-silencing RNA control [2]: significant decrease
PBEF protein [2]: significant suppression

trichostatin A
HDAC activity in both control and PBEF-overexpressing SMC's ([3]; 40 nM trichostatin A): substantially inhibited

CC(NC(=O)c1ccccc1/N=C/c1c(O)ccc2ccccc12)c1ccccc1 (centres unmarked) [Sirtinol, sirtinol]
HDAC activity in PBEF-overexpressing SMC's ([3]; 50 μM sirtinol): significantly inhibited
HDAC activity in control SMC's ([3]; 50 μM sirtinol): more modest inhibition

siRNA1248: retrovirally expressed hairpin siRNA to PBEF, 19 nt from nucleotide 1248: 5'-AGGGCCGATTATCTTTACA-3' (hairpin with spacer and reverse complement)
h-caldesmon expression (Western blot) [1]: reduced expression
SMC morphology [1]: short, truncated morphology
SMC survival [1]: survived poorly
PBEF mRNA (real-time RT-PCR) vs non-silencing RNA control [2]: significant decrease
PBEF protein [2]: significant suppression

B1: SIRT1 H363Y: dominant-negative form of SIRT1 (H363Y), retrovirally transduced (protein, UniProt Q96EB6 2-747, looked up, variant H363Y)
NAD-dependent protein …: ADEAALALQPGGSPSAAGADREAASSPAGEPLRKRPRRDGPGLERSPGEPGGAAPEREVPAAARGCPGAAAAALWREAEAEAAAAGGEQEAQATAAAGEGDNGPGLQGPSREPPLADNLYDEDDDDEGEEEEEAAAAAIGYRDNLLFGDEIITNGFHSCESDEEDRASHASSSDWTPRPRIGPYTFVQQHLMIGTDPRTILKDLLPETIPPPELDDMTLWQIVINILSEPPKRKKRKDINTIEDAVKLLQECKKIIVLTGAGVSVSCGIPDFRSRDGIYARLAVDFPDLPDPQAMFDIEYFRKDPRPFFKFAKEIYPGQFQPSLCHKFIALSDKEGKLLRNYTQNIDTLEQVAGIQRIIQCYGSFATASCLICKYKVDCEAVRGDIFNQVVPRCPRCPADEPLAIMKPEIVFFGENLPEQFHRAMKYDKDEVDLLIVIGSSLKVRPVALIPSSIPHEVPQILINREPLPHLHFDVELLGDCDVIINELCHRLGGEYAKLCCNPVKLSEITEKPPRTQKELAYLSELPPTPLHVSEDSSSPERTSPPDSSVIVTLLDQAAKSNDDLDVSESKGCMEEKPQEVQTSRNVESIAEQMENPDLKNVGSSTGEKNERTSVAGTVRKCWPNRVAKEQISRRLDGNQYLFLPPNRYIFHGAEVYSDSEDDVLSSSSCGSNSDSGTCQSPSLEEPMEDESEIEEFYNGLEDEPDVPERAGGAGFGTDGDDQEAINEAISVKQEVTDMNYPSNKS
additional population doublings conferred by Nampt ([4]; SIRT1 H363Y allele co-expressed with Nampt, p=0.003): 0.3±0.3 population doublings
relative increase in senescence ([5]; dominant-negative SIRT1 co-expressed in PBEF-overexpressing SMCs): 55±12%
relative increase in senescence ([5]; vector-infected SMCs expressing SIRT1 H363Y): 15±10%

B2: SIRT1: NAD+-dependent deacetylase; tested by retroviral overexpression of human SIRT1 cDNA in SMCs (protein, UniProt Q96EB6 2-747, looked up)
NAD-dependent protein …: ADEAALALQPGGSPSAAGADREAASSPAGEPLRKRPRRDGPGLERSPGEPGGAAPEREVPAAARGCPGAAAAALWREAEAEAAAAGGEQEAQATAAAGEGDNGPGLQGPSREPPLADNLYDEDDDDEGEEEEEAAAAAIGYRDNLLFGDEIITNGFHSCESDEEDRASHASSSDWTPRPRIGPYTFVQQHLMIGTDPRTILKDLLPETIPPPELDDMTLWQIVINILSEPPKRKKRKDINTIEDAVKLLQECKKIIVLTGAGVSVSCGIPDFRSRDGIYARLAVDFPDLPDPQAMFDIEYFRKDPRPFFKFAKEIYPGQFQPSLCHKFIALSDKEGKLLRNYTQNIDTLEQVAGIQRIIQCHGSFATASCLICKYKVDCEAVRGDIFNQVVPRCPRCPADEPLAIMKPEIVFFGENLPEQFHRAMKYDKDEVDLLIVIGSSLKVRPVALIPSSIPHEVPQILINREPLPHLHFDVELLGDCDVIINELCHRLGGEYAKLCCNPVKLSEITEKPPRTQKELAYLSELPPTPLHVSEDSSSPERTSPPDSSVIVTLLDQAAKSNDDLDVSESKGCMEEKPQEVQTSRNVESIAEQMENPDLKNVGSSTGEKNERTSVAGTVRKCWPNRVAKEQISRRLDGNQYLFLPPNRYIFHGAEVYSDSEDDVLSSSSCGSNSDSGTCQSPSLEEPMEDESEIEEFYNGLEDEPDVPERAGGAGFGTDGDDQEAINEAISVKQEVTDMNYPSNKS
increase in cumulative population doublings vs vector infected SMCs [6]: 1.30±0.93 fold
increase in number of population doublings ([4]; SIRT1-SMCs, clonal longer-lived human SMC line, p<0.05): 1.17±0.03 fold
